In patent publication US20190322960A1, “FRAGRANCE COMPOSITIONS AND METHODS OF USE THEREOF” (TAKASAGO INTERNATIONAL CORPORATION, priority 2016, published 2019):

Assays:
salivary alpha-amylase = experiment: Stress test (timed mathematical and word test), salivary alpha-amylase of panelists exposed to fragrance; type: in vivo, human; settings: for effect on salivary alpha-amylase levels as compared to the DPG control (in words): exposed panelists, stress test; for % Change in Alpha-amylase (i.e., before versus after stress): panelists exposed during stress test, saliva before and immediately after stress test, DPG solvent, DPG control 51.9%
Description: (§1) Stress was induced in each panelist using a timed mathematical and word test, which was administered to panelists in a small group competition setting to induce stress in each of the panelists. At set time intervals during the test, each panelist was exposed to either a single fragrance compound or to a DPG control.
(§2) Saliva was collected for each panelist before and immediately after the stress test. Saliva samples were assayed for salivary alpha-amylase activity and salivary cortisol levels using a commercially available assay kit (e.g., Salimetrics®).
(§3) Table 1-A summarizes the percent change (i.e., before stress versus after stress) in the salivary alpha-amylase levels of panelists exposed to fragrance compounds of the present disclosure during the stress test. In addition, the table illustrates the statistical significance of the change in alpha-amylase levels (i.e., p-value or probability value, P) of each of the fragrance compounds as compared to DPG, representing the change in the control (i.e., just DPG without a fragrance compound before stress and after stress).
(§4) Saliva was collected before and immediately after the stress test. Saliva samples were assayed for salivary alpha-amylase activity and salivary cortisol levels using a commercially available assay kit (e.g., Salimetrics®).
as §3, with “5-A” for “1-A”

salivary cortisol = experiment: Stress test (timed mathematical and word test), salivary cortisol of panelists exposed to fragrance; type: in vivo, human; settings: for effect on salivary cortisol levels as compared to the control (in words): exposed panelists, stress test; for % Change in Cortisol (i.e., before versus after stress): panelists exposed during stress test, saliva before and immediately after stress test, DPG solvent, DPG control 10.8%
Description: as §1, §2
as §3, with “Table 1-B” for “Table 1-A”, “salivary cortisol” for “salivary alpha-amylase”, “in salivary cortisol” for “in alpha-amylase”
as §4
as §3, with “Table 5-B” for “Table 1-A”, “salivary cortisol” for “salivary alpha-amylase”, “in salivary cortisol” for “in alpha-amylase”

Structure (SMILES)	effect on salivary alpha-amylase levels as compared to the DPG control (in words) (salivary alpha-amylase)	% Change in Alpha-amylase (i.e., before versus after stress) (salivary alpha-amylase)	effect on salivary cortisol levels as compared to the control (in words) (salivary cortisol)	% Change in Cortisol (i.e., before versus after stress) (salivary cortisol)
CC1=CCC(C(C)CC2CCCC2=O)CC1 (centres unmarked) [2-(2-(4-methyl-3-cyclohexen-1-yl)propyl)cyclopentanone]	limited the increase in salivary alpha-amylase levels	33.5%	the levels of salivary cortisol were limited	−10.6%
C=C(C)[C@H]1CC=C(C)CC1 [Limonene, limonene]	limited the increase in salivary alpha-amylase levels	−15.9%		21.05%
CC(=O)OC(C)(C)C1CC=C(C)CC1 (centres unmarked) [Terpinyl Acetate, terpinyl acetate]	limited the increase in salivary alpha-amylase levels	16.5%	the levels of salivary cortisol were limited	−9.1%
